Measured values published in patent US7858635B2 (priority 2005, dated 2010).

Tests used:
[1] = molecular target: T1, M1 muscarinic receptor (Homo sapiens, UniProt P11229); assay: Functional mobilization of intracellular calcium (FLIPR, Fluo-3), M1-CHO cells; assay type: cell-based; details: compound nos. 1-454; for Emax: 100% efficacy is the maximum response obtained with the Carbachol control, read-out: M1 Efficacy; for M1 Activity: M1-CHO cells, calcium mobilization
T1 construct: expressed in transfected cells; host or cells: CHO cells (M1-CHO, under zeocin and G418 selection)
T1 sequence (P11229 1-460): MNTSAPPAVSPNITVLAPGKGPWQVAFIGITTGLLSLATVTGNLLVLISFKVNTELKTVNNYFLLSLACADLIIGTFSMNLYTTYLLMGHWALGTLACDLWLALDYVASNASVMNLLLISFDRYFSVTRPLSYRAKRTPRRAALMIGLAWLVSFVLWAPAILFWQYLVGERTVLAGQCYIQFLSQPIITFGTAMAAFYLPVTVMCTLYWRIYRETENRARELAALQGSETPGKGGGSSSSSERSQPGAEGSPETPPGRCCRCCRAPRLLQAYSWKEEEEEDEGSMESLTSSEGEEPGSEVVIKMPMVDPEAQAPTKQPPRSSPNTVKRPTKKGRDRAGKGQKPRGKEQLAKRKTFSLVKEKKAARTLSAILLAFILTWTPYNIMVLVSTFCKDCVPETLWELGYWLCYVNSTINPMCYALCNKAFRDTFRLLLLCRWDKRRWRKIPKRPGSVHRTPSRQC
Summary of the method: (§1)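 CHO lines stably carrying the muscarinic subtype, dye-loaded with Fluo-3 at 37° C for 60-90 min, receive test compound in 0.5% DMSO. Agonist effects are read directly; antagonist effects against carbachol at EC80 after 15 min pre-incubation.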

[2] = molecular target: T2, M4 muscarinic receptor (Homo sapiens, UniProt P08173); assay: Functional mobilization of intracellular calcium (FLIPR, Fluo-3), M4-CHO cells; assay type: cell-based; details: compound nos. 1-454; for Emax: 100% efficacy is the maximum response obtained with the Carbachol control, read-out: M4 Efficacy; for M4 Activity: M4-CHO cells, calcium mobilization
T2 construct: expressed in transfected cells; host or cells: CHO cells (M4-CHO, under puromycin, zeocin and blasticidin selection)
T2 sequence (P08173 1-479): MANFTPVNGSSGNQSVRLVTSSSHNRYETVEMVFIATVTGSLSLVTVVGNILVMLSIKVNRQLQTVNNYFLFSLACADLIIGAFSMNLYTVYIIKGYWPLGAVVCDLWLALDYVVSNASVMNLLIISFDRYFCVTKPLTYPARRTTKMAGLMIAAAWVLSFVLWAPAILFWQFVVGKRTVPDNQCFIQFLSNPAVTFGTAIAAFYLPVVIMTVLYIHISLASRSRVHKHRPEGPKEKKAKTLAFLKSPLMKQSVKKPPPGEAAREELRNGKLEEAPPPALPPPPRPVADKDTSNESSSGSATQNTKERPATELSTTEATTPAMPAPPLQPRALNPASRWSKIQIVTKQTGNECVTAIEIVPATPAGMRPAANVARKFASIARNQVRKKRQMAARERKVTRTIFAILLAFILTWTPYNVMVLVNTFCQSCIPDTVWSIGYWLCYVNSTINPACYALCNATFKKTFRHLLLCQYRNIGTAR
Summary of the method: as §1

Structure (SMILES) | Emax [1] | M1 Activity [1] | Emax [2] | M4 Activity [2]
Clc1ccc2c(c1)C1(CCO2)CCN(C2CCOCC2)CC1 [compound 178] | > 85% | ++ (activity was measured to be between 0.7 μM and 3.0 μM) | 55 to 70% | + (activity was measured to be greater than or equal to 4.0 μM)
CCOC(=O)N1C2CCC1CC(N1CCC3(CC1)CN(C(=O)C1CCC1)c1ccc(F)cc13)C2 (stereo not shown) [compound 179] | > 85% | ++ (activity was measured to be between 0.7 μM and 3.0 μM) | 55 to 70% | + (activity was measured to be greater than or equal to 4.0 μM)
CC(=O)NC1CC2(CCN(CC3CC4C=CC3C4)CC2)c2ccccc21 (stereo not shown) [compound 180] | 65 to 85% | +++ (activity was measured to be less than or equal to 0.7 μM) | 55 to 70% | +++ (activity was measured to be less than or equal to 0.1 μM)
Clc1ccc2c(c1)C1(CCN([C@H]3C[C@@H]4CC[C@H]3C4)CC1)CO2 [compound 181] | 65 to 85% | ++ (activity was measured to be between 0.7 μM and 3.0 μM) | 55 to 70% | + (activity was measured to be greater than or equal to 4.0 μM)
COC(=O)N1CCC(CN2CCC3(CC2)C[C@H](NC(C)=O)c2ccccc23)CC1 [compound 182] | 65 to 85% | + (activity was measured to be greater than or equal to 3.0 μM) | 55 to 70% | + (activity was measured to be greater than or equal to 4.0 μM)
Fc1ccc2c(c1)C1(CCN(CC3CC4C=CC3C4)CC1)CN2 (stereo not shown) [compound 183] | 65 to 85% | ++ (activity was measured to be between 0.7 μM and 3.0 μM) | 55 to 70% | + (activity was measured to be greater than or equal to 4.0 μM)
CC(=O)N[C@H]1CC2(CCN(CC3CCCCC3)CC2)c2ccccc21 [compound 184] | > 85% | ++ (activity was measured to be between 0.7 μM and 3.0 μM) | 55 to 70% | + (activity was measured to be greater than or equal to 4.0 μM)
O=C(OCC(F)F)N1C2CCC1CC(N1CCC3(CC1)COc1ccc(F)cc13)C2 (stereo not shown) [compound 186] | > 85% | +++ (activity was measured to be less than or equal to 0.7 μM) | 55 to 70% | + (activity was measured to be greater than or equal to 4.0 μM)
CC(=O)N1CC2(CCN(CC3CCCC3)CC2)c2cc(F)ccc21 [compound 187] | 65 to 85% | ++ (activity was measured to be between 0.7 μM and 3.0 μM) | 55 to 70% | + (activity was measured to be greater than or equal to 4.0 μM)
CN(C)C(=O)N1CC2(CCN(C3CC4CCC(C3)N4C(=O)O[C@@H]3CCOC3)CC2)c2cc(F)ccc21 (stereo partly shown) [compound 188] | < 65% | + (activity was measured to be greater than or equal to 3.0 μM) | 55 to 70% | + (activity was measured to be greater than or equal to 4.0 μM)
CCOC(=O)N1C2CCC1CC(N1CCC3(CC1)CN(C(=O)c1cc(C)nn1C(C)(C)C)c1ccc(F)cc13)C2 (stereo not shown) [compound 189] | 65 to 85% | +++ (activity was measured to be less than or equal to 0.7 μM) | 55 to 70% | + (activity was measured to be greater than or equal to 4.0 μM)
CC(=O)N(C)[C@H]1CC2(CCN(C[C@H]3C[C@H]4CC[C@@H]3C4)CC2)c2ccccc21 [compound 190, N—((S)-1′-((1R,2S,4S)-bicyclo[2.2.1]heptan-2-ylmethyl)-2,3-dihydrospiro[indene-1,4′-piperidine]-3-yl)-N-methylacetamide] | > 85% | + (activity was measured to be greater than or equal to 3.0 μM) | 55 to 70% | + (activity was measured to be greater than or equal to 4.0 μM)
CCOC(=O)N1CCC(N2CCC3(CC2)C(=O)Nc2ccccc23)CC1 [compound 191] | 65 to 85% | +++ (activity was measured to be less than or equal to 0.7 μM) | 55 to 70% | + (activity was measured to be greater than or equal to 4.0 μM)
COC(=O)N1CC2(CCN(C3CC4CCC(C3)N4C(=O)O[C@@H]3CCOC3)CC2)c2cc(F)ccc21 (stereo partly shown) [compound 192] | 65 to 85% | +++ (activity was measured to be less than or equal to 0.7 μM) | 55 to 70% | + (activity was measured to be greater than or equal to 4.0 μM)
CCOC(=O)N1CCC(N2CCC3(CC2)CN(C(C)=O)c2ccc(-c4ccc(OC)cc4)cc23)CC1 [compound 193] | < 65% | + (activity was measured to be greater than or equal to 3.0 μM) | < 55% | + (activity was measured to be greater than or equal to 4.0 μM)
CCOC(=O)N1CCC(N2CCC3(CC2)CN(C(=O)CC(C)(C)C)c2ccc(F)cc23)CC1 [compound 194] | > 85% | +++ (activity was measured to be less than or equal to 0.7 μM) | 55 to 70% | + (activity was measured to be greater than or equal to 4.0 μM)
COCCOC(=O)N1CC2(CCN(C3CC4CCC(C3)N4C(=O)OC3CCC3)CC2)c2cc(F)ccc21 (stereo not shown) [compound 195] | < 65% | ++ (activity was measured to be between 0.7 μM and 3.0 μM) | < 55% | + (activity was measured to be greater than or equal to 4.0 μM)
CC(=O)N[C@H]1CC2(CCN(C3CCCCC3)CC2)c2ccccc21 [compound 196] | 65 to 85% | +++ (activity was measured to be less than or equal to 0.7 μM) | < 55% | + (activity was measured to be greater than or equal to 4.0 μM)
CCOC(=O)N1C2CCC1CC(N1CCC3(CC1)CN(C(=O)Nc1ccc(F)cc1)c1ccc(F)cc13)C2 (stereo not shown) [compound 197] | < 65% | ++ (activity was measured to be between 0.7 μM and 3.0 μM) | < 55% | + (activity was measured to be greater than or equal to 4.0 μM)
O=C(O[C@@H]1CCOC1)N1CC2(CCN(C3CC4CCC(C3)N4C(=O)O[C@H]3CCOC3)CC2)c2cc(F)ccc21 (stereo partly shown) [compound 198] | 65 to 85% | ++ (activity was measured to be between 0.7 μM and 3.0 μM) | < 55% | + (activity was measured to be greater than or equal to 4.0 μM)
CCOC(=O)N1C2CCC1CC(N1CCC3(CC1)C(=O)Nc1ccccc13)C2 (stereo not shown) [compound 199] | 65 to 85% | ++ (activity was measured to be between 0.7 μM and 3.0 μM) | < 55% | + (activity was measured to be greater than or equal to 4.0 μM)
CC=CCOC(=O)N1C2CCC1CC(N1CCC3(CC1)CN(C(=O)N(C)C)c1ccc(F)cc13)C2 (stereo not shown) [compound 200] | 65 to 85% | ++ (activity was measured to be between 0.7 μM and 3.0 μM) | < 55% | + (activity was measured to be greater than or equal to 4.0 μM)
CC(=O)N1CC2(CCN(CC3CCN(C(=O)OC(C)C)CC3)CC2)c2cc(F)ccc21 [compound 202] | 65 to 85% | ++ (activity was measured to be between 0.7 μM and 3.0 μM) | < 55% | + (activity was measured to be greater than or equal to 4.0 μM)
CN(C)C(=O)N1C2CCC1CC(N1CCC3(CC1)COc1ccc(F)cc13)C2 (stereo not shown) [compound 203] | 65 to 85% | +++ (activity was measured to be less than or equal to 0.7 μM) | < 55% | ++ (activity was measured to be between 0.1 μM and 4.0 μM)
Fc1ccc2c(c1)C1(CCN([C@H]3C[C@@H]4CC[C@@H]3C4)CC1)CO2 [compound 204] | 65 to 85% | +++ (activity was measured to be less than or equal to 0.7 μM) | < 55% | + (activity was measured to be greater than or equal to 4.0 μM)
